From ChEMBL document CHEMBL1667765, “Syntheses, antiproliferative activity and theoretical characterization of acitretin-type retinoids with changes in the lipophilic part” (2011)
Active and inactive are the calls of the source. The calls are words filed in the database; no cut-off is given here.

Experiments:
MCF7 [1] = assay: Antiproliferative activity against human MCF7 cells expressing estrogen receptor assessed as cell growth inhibition 50 uM after 72 hrs by WST-1 assay relative to control; type: functional
MCF7 [2] = assay: Antiproliferative activity against human MCF7 cells expressing estrogen receptor assessed as cell growth inhibition 5 uM after 72 hrs by WST-1 assay relative to control; type: functional
MCF7 [3] = assay: Antiproliferative activity against human MCF7 cells expressing estrogen receptor after 72 hrs by WST-1 assay; type: functional, cell-based
MCF7 [4] = assay: Induction of apoptosis in human MCF7 cells expressing estrogen receptor assessed as increase of PARP cleavage at 10^-5 M after 4 hrs by Western blotting; type: functional, cell-based
MCF7 [5] = assay: Induction of apoptosis in human MCF7 cells expressing estrogen receptor assessed as increase of PARP cleavage at 10^-5 M after 9 hrs by Western blotting; type: functional, cell-based
MCF7 [6] = assay: Antiproliferative activity against human MCF7 cells expressing estrogen receptor at 10 uM after 72 hrs by WST-1 assay; type: functional; details: MCF7, 72 h
MCF7 [7] = assay: Antiproliferative activity against human MCF7 cells expressing estrogen receptor after 72 hrs by MTT assay; type: functional, cell-based
MCF7 [8] = assay: Cell cycle arrest in human MCF7 cells expressing estrogen receptor at 10^-5 M after 9 to 48 hrs using propidium iodide staining by FACS analysis; type: functional, cell-based
[9] = target: RAC-alpha serine/threonine-protein kinase (Homo sapiens) (UniProt P31749); assay: Activation of Akt in human MCF7 cells expressing estrogen receptor at 10^-5 M after 4 hrs by Western blotting; type: functional, cell-based
[10] = target: RAC-alpha serine/threonine-protein kinase (Homo sapiens) (UniProt P31749); assay: Activation of Akt in human MCF7 cells expressing estrogen receptor at 10^-5 M after 9 hrs by Western blotting; type: functional, cell-based

Chain of RAC-alpha serine/threonine-protein kinase (Homo sapiens) (P31749 whole entry): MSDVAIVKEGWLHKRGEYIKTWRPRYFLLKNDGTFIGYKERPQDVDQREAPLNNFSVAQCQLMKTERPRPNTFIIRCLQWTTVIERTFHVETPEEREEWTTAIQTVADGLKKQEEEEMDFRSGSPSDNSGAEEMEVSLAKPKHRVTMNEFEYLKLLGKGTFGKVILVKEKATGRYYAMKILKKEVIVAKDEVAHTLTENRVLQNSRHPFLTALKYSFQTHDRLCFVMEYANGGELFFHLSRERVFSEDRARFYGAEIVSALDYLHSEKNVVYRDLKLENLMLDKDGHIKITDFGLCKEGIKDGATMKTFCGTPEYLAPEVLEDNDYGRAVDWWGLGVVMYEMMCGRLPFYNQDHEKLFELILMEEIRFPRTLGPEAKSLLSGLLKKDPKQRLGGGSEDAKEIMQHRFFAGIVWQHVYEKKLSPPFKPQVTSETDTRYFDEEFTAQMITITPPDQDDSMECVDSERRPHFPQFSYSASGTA

In the case of `CC(/C=C/c1ccc(N(C)C)cc1)=C\C=C\C(C)=C\C(=O)O`, the “inhibition (INH)” value (MCF7 [1]) is reported as 5%.
In the case of `CC(/C=C/c1cc(F)c(F)cc1F)=C\C=C\C(C)=C\C(=O)O`, the “inhibition (INH)” value (MCF7 [2]) is reported as 2% and the “inhibition (INH)” value (MCF7 [1]) is reported as 10%.
With `CC(/C=C/c1ccc2ccc3cccc4ccc1c2c34)=C\C=C\C(C)=C\C(=O)O` the “inhibition (INH)” value (MCF7 [2]) was 5.2% and the “inhibition (INH)” value (MCF7 [1]) was 4%.
For `COc1ccc(/C=C/C(C)=C/C=C/C(C)=C/C(=O)O)cc1OC`, the “inhibition (INH)” value (MCF7 [1]) was -30%.
In the case of `COc1cc(C)c(/C=C/C(C)=C/C=C/C(C)=C/C(=O)O)c(C)c1C`, the inhibition (MCF7 [3]) is reported as “Dose-dependent effect”.
For `CN[C@@H]1C[C@H]2O[C@@](C)([C@@H]1OC)n1c3ccccc3c3c4c(c5c6ccccc6n2c5c31)C(=O)NC4`, the Activity (MCF7 [4]) was “Active” and the Activity (MCF7 [5]) was “Active”.
In the case of `CC(/C=C/c1ccc2ccccc2c1)=C\C=C\C(C)=C\C(=O)O`, the “inhibition (INH)” value (MCF7 [1]) is reported as -25%.
`COc1cc(OC)c(/C=C/C(C)=C/C=C/C(C)=C/C(=O)O)c(OC)c1` was tested, and the inhibition (MCF7 [3]) was “Active”, the inhibition at 10 µM (MCF7 [6]) was 52% and the inhibition (MCF7 [7]) was “Active”. The Activity (MCF7 [4]) was “inactive”, the Activity (MCF7 [5]) was “inactive” and the Activity (MCF7 [8]) was “inactive”. For the same compound, the Activity [9] was “inactive”, the Activity [10] was “inactive” and the “inhibition (INH)” value (MCF7 [1]) was -53%.
With `COc1ccc2cc(/C(C)=C/C=C/C(C)=C/C(=O)O)ccc2c1` the “inhibition (INH)” value (MCF7 [1]) was -32%.
In the case of `CC(/C=C/C=C(\C)c1ccc2cc3ccccc3cc2c1)=C\C(=O)O`, the “inhibition (INH)” value (MCF7 [1]) is reported as 15%.
In the case of `CC(/C=C/c1ccc(C(F)(F)F)cc1C(F)(F)F)=C\C=C\C(C)=C\C(=O)O`, the “inhibition (INH)” value (MCF7 [2]) is reported as 13.9% and the “inhibition (INH)” value (MCF7 [1]) is reported as 6%.
For `CC1=C(/C=C/C(C)=C/C=C/C(C)=C/C(=O)O)C(C)(C)CCC1` [TRETINOIN], the “inhibition (INH)” value (MCF7 [1]) was 3.1%.
`CC(/C=C/C=C(\C)c1ccc2ccc3cccc4ccc1c2c34)=C\C(=O)O` was tested, and the “inhibition (INH)” value (MCF7 [1]) was 8%.
